Measured values taken from US20120082658A1, “Methods for the Treatment of Allergic Diseases” (VentiRx Pharmaceuticals, Inc., priority 2010, published 2012).

Experiments:
TLR3 = target: T1, TLR3 (Homo sapiens, UniProt O15455); assay: HEK293 cells transfected with human TLR3, NF-κB driven reporter; assay type: cell-based; settings: concentration up to 25 uM
T1 construct: expressed in transfected cells; host or cells: HEK293
T1 sequence (O15455 24-904): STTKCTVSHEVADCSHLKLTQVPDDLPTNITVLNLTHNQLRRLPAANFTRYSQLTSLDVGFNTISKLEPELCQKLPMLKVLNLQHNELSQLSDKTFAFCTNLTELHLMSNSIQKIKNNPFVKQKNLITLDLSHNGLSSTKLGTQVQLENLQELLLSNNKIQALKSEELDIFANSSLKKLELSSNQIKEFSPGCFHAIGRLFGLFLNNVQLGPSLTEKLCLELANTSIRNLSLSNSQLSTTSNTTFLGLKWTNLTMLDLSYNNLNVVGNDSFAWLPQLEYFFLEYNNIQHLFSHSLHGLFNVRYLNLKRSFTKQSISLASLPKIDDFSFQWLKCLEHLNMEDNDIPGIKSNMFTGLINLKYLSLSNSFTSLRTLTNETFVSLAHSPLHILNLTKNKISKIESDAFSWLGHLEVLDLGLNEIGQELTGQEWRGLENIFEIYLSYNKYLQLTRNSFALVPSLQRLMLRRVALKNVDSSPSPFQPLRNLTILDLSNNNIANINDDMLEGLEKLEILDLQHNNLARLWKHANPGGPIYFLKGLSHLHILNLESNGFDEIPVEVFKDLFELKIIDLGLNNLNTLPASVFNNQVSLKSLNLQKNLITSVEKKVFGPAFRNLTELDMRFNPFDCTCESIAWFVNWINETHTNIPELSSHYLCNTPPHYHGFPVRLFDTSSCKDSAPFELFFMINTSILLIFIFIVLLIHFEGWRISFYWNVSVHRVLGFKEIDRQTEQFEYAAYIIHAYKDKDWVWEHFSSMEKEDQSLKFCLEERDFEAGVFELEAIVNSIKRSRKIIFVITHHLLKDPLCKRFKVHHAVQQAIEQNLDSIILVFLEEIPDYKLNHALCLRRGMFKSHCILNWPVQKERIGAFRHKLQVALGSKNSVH
Procedure: FIG. 8 is two graphs depicting the potency and selectivity of VTX-378 for TLR8. The half-maximal effective concentration (EC50) for VTX-378 activation of TLR8 and TLR7 was assessed in peripheral blood mononuclear cells (PBMCs) by the amount of secreted TNFα (A) and by the activity of NF-κB (B) from 15 healthy donors and also in HEK293 cells transfected with various human TLRs.
Preclinical studies were performed with VTX-378, the active pharmaceutical ingredient in VTX-1463. The specificity of VTX-378 for human TLR8 relative to other TLRs was assessed in transfected Human Embryonic Kidney 293 (HEK293) cells engineered to express individual TLRs (2-9) via transfection, and assessed using an NF-κB driven reporter system. […] The pharmacologic effects of VTX-378 were characterized in vitro using isolated human peripheral blood mononuclear cells (PBMCs).

[1] = test system: ragweed-sensitized beagle dogs; assay: Model of allergic rhinitis in ragweed-sensitized beagle dogs (acoustic rhinometry, nasal mediators); assay type: in vivo, beagle dog
Procedure: FIG. 1 is four graphs establishing that one day pretreatment with VTX-378 reduces nasal congestion.
The therapeutic activity of VTX-378 was assessed in a well characterized model of allergic rhinitis in ragweed-sensitized beagle dogs (FIGS. 1-7). Acoustic rhinometry (AcR) can be used to measure the direct effect on the nasal mucosa following nasal instillation of ragweed antigen.

[2] = single dose 1000 ug intranasal one day prior to ragweed challenge

- activity on TLR3 (TLR3): no detectable activity
Compound: CCCN(CCC)C(=O)C1=Cc2ccc(-c3ccc(C(=O)N4CCCC4)cc3)cc2N=C(N)C1 [VTX-378]
- production of allergic mediators (nasal histamine, leukotrienes C4/D4/E4, prostaglandin D2, prostaglandin E2) ([1]; dose not given): significantly reduced
- allergic response to antigen challenge (acoustic rhinometry) ([1]; intranasal 100-1000 mcg): dose-dependent, statistically significant reduction
- level of nasal histamine ([1]; single dose 100 ug): less significant
- level of nasal leukotrienes C4/D4/E4 ([1]; single dose 100 ug): less significant
- level of nasal prostaglandin D2 ([1]; single dose 100 ug): less significant
- level of nasal prostaglandin E2 ([1]; single dose 100 ug): less significant
- allergic responses (nasal congestion) ([1]; single dose 100 ug, 500 ug and 1000 ug intranasal one day prior to ragweed challenge): significantly attenuated allergic responses
- level of nasal histamine [1, 2]: significantly reduced
- level of nasal leukotrienes C4/D4/E4 [1, 2]: significantly reduced
- level of nasal prostaglandin D2 [1, 2]: significantly reduced
- level of nasal prostaglandin E2 [1, 2]: significantly reduced
- attenuation of nasal congestion ([1]; single dose of 1000 mcg intranasal before ragweed challenge): 56.5%±10.0
- allergic responses (nasal congestion) ([1]; two 250 ug doses intranasal one day and four-day prior to ragweed challenge): significantly attenuated allergic responses
- allergic responses (nasal congestion) ([1]; two 1000 ug doses intranasal, one day and four-day or one day and eight-day prior to ragweed challenge): significantly attenuated allergic responses
- improvement of nasal congestion ([1]; two doses of 1000 mcg separated by 4 days): 65.4%±10.3
- improvement of nasal congestion ([1]; two doses of 1000 mcg separated by 7 days): 71.9%±7.7
